Details: 293.15 K, Liquid, Vibrating tube method

CCCCCCCCCC [decane]
Details | mass density [kg/m3]
22074 kPa | 745.5
22091 kPa | 745.6
22110 kPa | 745.5
22128 kPa | 745.6
22143 kPa | 745.7
22164 kPa | 745.5
22179 kPa | 745.6
22199 kPa | 745.6
22217 kPa | 745.7
22235 kPa | 745.7
22253 kPa | 745.5
22275 kPa | 745.8
22300 kPa | 745.7
22318 kPa | 745.7
22336 kPa | 745.7
22358 kPa | 745.8
22373 kPa | 745.8
22397 kPa | 745.8
22412 kPa | 745.8
22434 kPa | 745.7
22452 kPa | 745.7
22473 kPa | 745.8
22498 kPa | 745.9
22523 kPa | 745.9
22542 kPa | 745.8
22564 kPa | 746
22583 kPa | 745.9
22605 kPa | 745.9
22624 kPa | 745.9
22648 kPa | 745.8
22667 kPa | 745.9
22689 kPa | 746
22711 kPa | 745.9
22727 kPa | 746
22746 kPa | 746
22771 kPa | 746
22787 kPa | 746
22807 kPa | 746
22830 kPa | 746.1
22852 kPa | 746.1
22866 kPa | 746
22882 kPa | 746.2
22899 kPa | 746.2
22915 kPa | 746.2
22934 kPa | 746.2
22948 kPa | 746.2
22970 kPa | 746.2
22994 kPa | 746.1
23011 kPa | 746.2
23030 kPa | 746.2
23047 kPa | 746.1
23069 kPa | 746.1
23086 kPa | 746.1
23108 kPa | 746.2
23127 kPa | 746.3
23144 kPa | 746.2
23167 kPa | 746.2
23186 kPa | 746.2
23206 kPa | 746.4
23223 kPa | 746.3
23246 kPa | 746.3
23265 kPa | 746.4
23285 kPa | 746.4
23308 kPa | 746.2
23328 kPa | 746.4
23345 kPa | 746.3
23362 kPa | 746.3
23382 kPa | 746.3
23402 kPa | 746.3
23416 kPa | 746.3
23434 kPa | 746.3
23454 kPa | 746.4
23472 kPa | 746.4
23489 kPa | 746.5
23509 kPa | 746.5
23529 kPa | 746.5
23547 kPa | 746.5
23565 kPa | 746.5
23582 kPa | 746.5
23605 kPa | 746.6
23632 kPa | 746.7
23647 kPa | 746.6
23668 kPa | 746.5
23687 kPa | 746.7
23704 kPa | 746.6
23728 kPa | 746.7
23755 kPa | 746.6
23773 kPa | 746.6
23790 kPa | 746.7
23811 kPa | 746.7
23826 kPa | 746.6
23847 kPa | 746.7
23875 kPa | 746.7
23896 kPa | 746.8
23917 kPa | 746.8
23940 kPa | 746.7
23964 kPa | 746.9
23985 kPa | 746.9
24004 kPa | 746.7
24022 kPa | 747
24046 kPa | 746.8
24065 kPa | 746.8
24089 kPa | 746.8
24108 kPa | 746.9
24126 kPa | 746.9
24148 kPa | 746.9
24170 kPa | 746.9
24194 kPa | 746.9
24219 kPa | 747
24237 kPa | 747
24256 kPa | 746.9
24284 kPa | 747
24309 kPa | 747
24334 kPa | 747
24356 kPa | 747.1
24374 kPa | 747
24393 kPa | 747
24416 kPa | 747
24435 kPa | 747.1
24454 kPa | 747.1
24479 kPa | 747.1
24498 kPa | 747.1
24526 kPa | 747.1
24545 kPa | 747.1
24574 kPa | 747.2
24590 kPa | 747.2
24613 kPa | 747.1
24632 kPa | 747.2
24655 kPa | 747.3
24678 kPa | 747.2
24700 kPa | 747.2
24720 kPa | 747.2
24739 kPa | 747.2
24759 kPa | 747.4
24779 kPa | 747.4
24808 kPa | 747.3
24834 kPa | 747.2
24857 kPa | 747.4
24883 kPa | 747.4
24899 kPa | 747.3
24926 kPa | 747.4
24943 kPa | 747.5
24972 kPa | 747.3
24999 kPa | 747.4
25019 kPa | 747.5
25048 kPa | 747.5
25068 kPa | 747.5
25092 kPa | 747.5
25116 kPa | 747.5
25139 kPa | 747.5
25163 kPa | 747.5
25187 kPa | 747.6
25218 kPa | 747.7
25238 kPa | 747.6
25269 kPa | 747.5
25300 kPa | 747.7
25320 kPa | 747.7
25345 kPa | 747.6
25370 kPa | 747.6
25391 kPa | 747.7
25419 kPa | 747.6
25442 kPa | 747.7
25468 kPa | 747.8
25493 kPa | 747.7
25512 kPa | 747.6
25535 kPa | 747.8
25557 kPa | 747.8
25577 kPa | 747.8
25599 kPa | 747.7
25615 kPa | 747.7
25638 kPa | 747.9
25657 kPa | 747.8
25680 kPa | 747.8
25699 kPa | 747.8
25720 kPa | 748
25746 kPa | 747.9
25766 kPa | 747.9
25788 kPa | 747.9
25808 kPa | 747.9
25835 kPa | 748
25861 kPa | 748
25887 kPa | 748
25907 kPa | 748.1
25933 kPa | 747.9
25959 kPa | 748
25986 kPa | 748
26006 kPa | 748.1
26023 kPa | 748
26040 kPa | 748.1
26070 kPa | 748.1
26093 kPa | 748.1
26117 kPa | 748.1
26145 kPa | 748.1
26165 kPa | 748.2
26192 kPa | 748.1
26216 kPa | 748.1
26243 kPa | 748.1
26263 kPa | 748.4
26291 kPa | 748.2
26315 kPa | 748.2
26335 kPa | 748.3
26352 kPa | 748.3
26370 kPa | 748.3
26390 kPa | 748.4
26408 kPa | 748.3
26432 kPa | 748.3
26453 kPa | 748.3
26483 kPa | 748.4
26516 kPa | 748.4
26537 kPa | 748.4
26568 kPa | 748.4
26586 kPa | 748.5
26607 kPa | 748.4
26631 kPa | 748.5
26652 kPa | 748.5
26677 kPa | 748.4
26694 kPa | 748.5
26719 kPa | 748.4
26741 kPa | 748.5
26769 kPa | 748.5
26795 kPa | 748.5
26816 kPa | 748.5
26841 kPa | 748.6
26863 kPa | 748.5
26885 kPa | 748.6
26913 kPa | 748.7
26935 kPa | 748.7
26964 kPa | 748.7
26989 kPa | 748.6
27011 kPa | 748.7
27036 kPa | 748.7
27054 kPa | 748.6
27077 kPa | 748.7
27103 kPa | 748.7
27128 kPa | 748.8
27154 kPa | 748.7
27173 kPa | 748.7
27202 kPa | 748.8
27232 kPa | 748.8
27257 kPa | 748.8
27280 kPa | 748.8
27309 kPa | 748.8
27328 kPa | 748.8
27362 kPa | 749
27385 kPa | 748.9
27419 kPa | 748.9
27438 kPa | 749
27475 kPa | 749
27501 kPa | 749
27523 kPa | 749
27557 kPa | 749.1
27579 kPa | 749.1
27609 kPa | 749.1
27632 kPa | 749.1
27667 kPa | 749.1
27690 kPa | 749.2
27713 kPa | 749.1
27748 kPa | 749.3
27770 kPa | 749.1
27805 kPa | 749.2
27827 kPa | 749.1
27850 kPa | 749.2
27877 kPa | 749.2
27896 kPa | 749.1
27924 kPa | 749.3
27959 kPa | 749.2
27983 kPa | 749.3
28006 kPa | 749.4
28033 kPa | 749.3
28056 kPa | 749.4
28076 kPa | 749.4
28099 kPa | 749.3
28123 kPa | 749.3
